Data reported in PubChem BioAssay (NCI).
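Protocol summary: plate cells (96-well), add compound at 5 concentrations, incubate 48 h, interpolate endpoints linearly. TGI is the concentration that stops growth completely.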

Assays:
Assay in all cases: inhibition of tumour cell growth, NCI panel, 48 h
[1] = tested on: SNB-19 CNS
[2] = tested on: XF 498 CNS
[3] = tested on: A549 NSCLC
[4] = tested on: UACC-257 melanoma
[5] = tested on: A498 renal
[6] = tested on: SF-539 CNS
[7] = tested on: IGROV1 ovarian
[8] = tested on: TK-10 renal
[9] = tested on: OVCAR-3 ovarian
[10] = tested on: HCT-15 colon
[11] = tested on: UACC-62 melanoma
[12] = tested on: ACHN renal
[13] = tested on: HCT-116 colon
[14] = tested on: SNB-78 CNS
[15] = tested on: SF-268 CNS
[16] = tested on: CAKI-1 renal
[17] = tested on: SF-295 CNS
[18] = tested on: DMS 273 small cell lung
[19] = tested on: NCI-H460 lung
[20] = tested on: KM20L2 colon
[21] = tested on: HOP-18 NSCLC
[22] = tested on: U251 CNS
[23] = tested on: COLO 205 colon
[24] = tested on: SK-MEL-2 melanoma
[25] = tested on: LOX IMVI melanoma
[26] = tested on: NCI-H23 lung
[27] = tested on: HOP-92 NSCLC
[28] = tested on: OVCAR-5 ovarian
[29] = tested on: DMS 114 small cell lung
[30] = tested on: OVCAR-8 ovarian
[31] = tested on: OVCAR-4 ovarian
[32] = tested on: KM12 colon
[33] = tested on: NCI-H226 lung
[34] = tested on: SK-MEL-5 melanoma
[35] = tested on: SN12C renal
[36] = tested on: 786-0 renal
[37] = tested on: SW-620 colon
[38] = tested on: HOP-62 NSCLC
[39] = tested on: MALME-3M melanoma
[40] = tested on: DLD-1 colon
[41] = tested on: EKVX NSCLC
[42] = tested on: RXF 393 renal
[43] = tested on: SK-MEL-28 melanoma
[44] = tested on: HL-60(TB) leukemia
[45] = tested on: SNB-75 CNS
[46] = tested on: RPMI-8226 leukemia
[47] = tested on: CCRF-CEM leukemia
[48] = tested on: UO-31 renal
[49] = tested on: MOLT-4 leukemia
[50] = tested on: M19-MEL melanoma
[51] = tested on: SK-OV-3 ovarian
[52] = tested on: M14 melanoma
[53] = tested on: HT29 colon
[54] = tested on: HCC-2998 colon
[55] = tested on: K-562 leukemia

Measured: TGI

CCCCCC(=O)OCCOCCOCCOCCOCCOCc1ccccc1
> 100 µM: [1] | [2] | [3] | [4] | [5] | [6] | [7] | [8] | [9] | [10] | [11] | [12] | [13] | [14] | [15] | [16] | [17] | [18] | [19] | [20] | [21] | [22] | [23] | [24] | [25] | [26] | [27] | [28] | [29] | [30] | [31] | [32] | [33] | [34] | [35] | [36] | [37] | [38] | [39] | [40] | [41] | [42] | [43]

O=C1Cc2ccccc2N1/N=C\c1ccc([N+](=O)[O-])cc1
> 100 µM: [1] | [2] | [44] | [3] | [4] | [45] | [46] | [5] | [6] | [7] | [8] | [47] | [48] | [9] | [10] | [11] | [12] | [13] | [14] | [15] | [16] | [17] | [18] | [49] | [19] | [20] | [21] | [22] | [23] | [24] | [25] | [50] | [26] | [27] | [28] | [29] | [30] | [31] | [32] | [33] | [34] | [36] | [51] | [37] | [38] | [39] | [40] | [52] | [41] | [53] | [54] | [55] | [43]
